This is an account of results in DBAASP.

Converted amounts (≈) assume the structure as drawn. “And” between values parts separate entries of the source, which are not always exact repeats. Identical values can stand only once. Some results are limits rather than exact numbers.

Some test systems named below: Nocardia asteroides; Candida glabrata 090902; Escherichia coli W160-37.
Test in all cases: ≥ marks a high value that may be exact or a test limit, other limits are often not marked, values filed in µg/mL are converted to µM
For assay [1], the system named is Klebsiella pneumoniae 08040724.
Assay [2] deals with Enterobacter cloacae CGMCC 1.57.
For assay [3], the system named is Escherichia coli ATCC 25922.
The test system of assay [4] is Psychrobacter faecalis X29.
Assay [5] concerns Pseudomonas aeruginosa CGMCC 1.50.
Assay [6] deals with Enterococcus faecium 091299.
In assay [7] the test system is Staphylococcus aureus ATCC 25923.
Assay [8] concerns Candida albicans ATCC 10231.
In assay [9] the test system is Enterococcus faecalis 981.
For assay [10], the system named is Pseudomonas aeruginosa NCTC 6751.
Assay [11] concerns Staphylococcus aureus ATCC 8530.
Assay [12] relates to Staphylococcus epidermidis.
Assay [13] deals with Staphylococcus aureus A170.
In assay [14] the test system is Candida albicans ATCC 37092.
Assay [15] relates to Micrococcus luteus ATCC 49732.
The test system of assay [16] is Klebsiella oxytoca ATCC 49131.
Assay [17] relates to Staphylococcus aureus ATCC 29213.
The subject of assay [18] is Proteus vulgaris ATCC 49132.
Assay [19] deals with Candida tropicalis ATCC 37097.
In assay [20] the test system is Pseudomonas aeruginosa ATCC 27853.
In assay [21] the test system is Enterococcus faecalis ATCC 29212.

Regarding `CC[C@H](C)[C@H](NC(=O)[C@H](CCCCN)NC(=O)[C@H](CC(C)C)NC(=O)[C@H](C)NC(=O)[C@@H](NC(=O)CNC(=O)[C@H](CCSC)NC(=O)[C@@H](N)Cc1ccccc1)[C@@H](C)O)C(=O)N[C@@H](C)C(=O)N[C@@H](C)C(=O)N[C@@H](CC(N)=O)C(=O)N[C@H](C(=O)N[C@@H](CC(C)C)C(=O)N1CCC[C@H]1C(=O)N[C@@H](C)C(=O)N[C@@H](C)C(=O)N[C@@H](Cc1ccccc1)C(=O)N[C@H]1CSSC[C@@H](C(=O)O)NC(=O)[C@H](CCCCN)NC(=O)[C@H](CCCCN)NC(=O)[C@H](Cc2ccccc2)NC(=O)[C@H]([C@@H](C)CC)NC(=O)[C@H](CCCCN)NC1=O)C(C)C` [FMGTALKIAANVLPAAFCKIFKKC], the MIC in assay [1] was at least 400 µM; in assay [2], at least 100 µM; in [3], 200 µM (≈ 517 µg/mL); in assay [4] it was 12.5 µM (≈ 32.3 µg/mL); in [5] it was at least 400 µM; in the assay on Nocardia asteroides, 3.1 µM (≈ 8.01 µg/mL). Moreover, the MIC in [6] was at least 100 µM; in assay [7], 3.1 µM (≈ 8.01 µg/mL); in assay [8] it was 100 µM (≈ 258 µg/mL); in assay [9], 3.1 µM (≈ 8.01 µg/mL); with Candida glabrata 090902 it was 12.5 µM (≈ 32.3 µg/mL).

`CC(=O)N[C@@H](Cc1ccccc1)C(=O)N[C@@H](CCCN=C(N)N)C(=O)N[C@@H](CCCCN)C(=O)N[C@@H](CC(C)C)C(=O)N[C@@H](Cc1ccccc1)C(=O)N[C@@H](CCCN=C(N)N)C(=O)N[C@H](C(=O)N[C@@H](Cc1ccc(O)cc1)C(=O)N[C@@H](CO)C(=O)N[C@@H](CC(N)=O)C(=O)N[C@@H](Cc1ccccc1)C(=O)N[C@@H](CC(C)C)C(=O)N[C@@H](CCCN=C(N)N)C(=O)NCC(=O)N[C@@H](CCCCN)C(=O)N[C@@H](CC(C)C)C(=O)N[C@@H](CCCCN)C(=O)N[C@@H](CC(C)C)C(N)=O)C(C)C` [FRKLFRVYSNFLRGKLKL]: the MIC in the assay on Escherichia coli W160-37 turned out to be 11 µM (≈ 25.6 µg/mL); in assay [10], 22 µM (≈ 51.2 µg/mL); in assay [11] it was 11 µM (≈ 25.6 µg/mL).

Take `CC[C@H](C)[C@H](NC(=O)[C@@H]1CCCN1C(=O)[C@H](CC(C)C)NC(=O)[C@@H](N)CC(C)C)C(=O)N[C@H](C(=O)NCC(=O)N[C@@H](C)C(=O)N[C@@H](CC(C)C)C(=O)N[C@@H](CC(C)C)C(=O)N[C@@H](CCCCN)C(=O)N[C@@H](CO)C(=O)N[C@@H](CC(C)C)C(=O)N[C@@H](CC(C)C)C(=O)O)C(C)C` [LLPIVGALLKSLL]: the MIC was determined as 7.41 µM (≈ 10 µg/mL) in [12] and 14.8 µM (≈ 20 µg/mL) in assay [13].

Consider `CC(C)C[C@H](NC(=O)[C@H](CCCN=C(N)N)NC(=O)[C@H](CCCN=C(N)N)NC(=O)[C@H](Cc1ccc(O)cc1)NC(=O)[C@H](CC(C)C)NC(=O)[C@H](CCCN=C(N)N)NC(=O)[C@H](CCCN=C(N)N)NC(=O)[C@H](Cc1ccc(O)cc1)NC(=O)[C@H](CC(C)C)NC(=O)[C@H](CCCN=C(N)N)NC(=O)[C@H](CCCN=C(N)N)NC(=O)[C@H](Cc1ccc(O)cc1)NC(=O)[C@H](CC(C)C)NC(=O)[C@@H](N)CCCN=C(N)N)C(=O)N[C@@H](Cc1ccc(O)cc1)C(=O)N[C@@H](CCCN=C(N)N)C(N)=O` [RLYRRLYRRLYRRLYR], for which the MIC in assay [14] is 1.2 µM and 1.9 µM; in assay [15], 0.6 µM (≈ 1.42 µg/mL); in assay [3] it was 1 µM and 0.7 µM; in assay [16], 0.9 µM (≈ 2.13 µg/mL); in assay [17], 1.8 µM and 1.1 µM; in [18] it was 1.8 µM and 1.2 µM. Further, the minimum inhibitory concentration (MIC) was 0.8 µM and 1.2 µM in assay [19]; 0.5 µM and 1 µM in assay [20]; 0.9 µM and 1.4 µM in [21].
